Measurements reported in article PMC9486541, “Design, synthesis and cytotoxic evaluation of novel betulonic acid-diazine derivatives as potential antitumor agents” (Frontiers in Chemistry, 2022).

Experiments:
Hela = test: MTT assay, Hela cells; assay type: cell-based, human; details: Homo sapiens, HeLa, 72 h incubation, read-out: Half maximal inhibitory concentration (IC50) values, Hela
Excerpt: (§1) The human hepatocellular carcinoma cell line (HepG2), human hepatocellular carcinoma cell line (Bel-7402), human cervical cancer cell line (Hela), human breast adenocarcinoma cell line (MCF-7) and Madin-Darby canine kidney cell line (MDCK) were obtained from the Chinese Academy of Medical Sciences and Peking Union Medical College. Cultures were maintained as monolayer in RPMI-1640/DMEM supplemented with 10% (v/v) fetal bovine serum (FBS) and 1% (v/v) penicillin/streptomycin (Thermo Technologies, New York, NY, United States) under a humidified atmosphere containing 5% CO2 at 37°C. The BoA derivatives and positive control drugs (BoA and DDP) under study were dissolved in DMSO (Sigma, St. Louis, MO, United States) and added at required concentrations to the cell culture. Cells incubated without the preparations served as the control.
(§2) The antitumor activity was assessed by MTT assay, as previously reported ([Fang et al., 2018]). Each tested compound and positive control drugs were dissolved in DMSO and diluted with the medium to the test concentrations, and the final concentration of DMSO in the culture medium was controlled at less than 0.5% (v/v). Briefly, cells were cultured at 37°C and dispersed in replicates in 96-well plates with HepG2, Bel-7402, HeLa, MCF-7 and MDCK for 24 h. Fresh medium along with compounds (BoAA-BoAE, BoA2A-BoA2G, BoA3A-BoA3G, BoA4A-BoA4G) at different concentrations was then added to individual wells and incubated for 72 h, with BoA and DDP as the positive control. Experiments on FXR expression were separated into three groups: Control (PBS), BoA2C (8 μM), and BoA2C (8 μM) + DY268 (10 μM) ([Giordano et al., 2016]), with three repeating wells in each. In separate wells, BoA2C and DY268 were introduced and cultured for 72 h. After 72 h, the cell was incubated with MTT solution (0.5 mg/ml) for an additional 4 h at 37°C. The produced formazan crystals were solubilized with DMSO, and the optical density of solution was measured at 570 nm using a plate reader (BIORAD 550 spectrophotometer, Bio-rad Life Science Development Ltd., Beijing, China). Wells without drugs were used to be blanks. The IC50 values were defined as the concentration of compounds that produced a 50% proliferation inhibition of surviving cells and calculated using the Graph Pad Prism 5. The inhibitory rate was calculated in the following Equation 1, where OD is the optical density: % inhibition=[1−(OD Sample group−OD Blank group)/(OD Control group−OD Blank group)]×100% (1)

MCF-7 = test: MTT assay, MCF-7 cells; assay type: cell-based, human; details: Homo sapiens, MCF7, 72 h incubation, read-out: Half maximal inhibitory concentration (IC50) values, MCF-7
Excerpt: as §1, §2

Bel-7402 = test: MTT assay, Bel-7402 cells; assay type: cell-based, human; details: Homo sapiens, Bel-7402, 72 h incubation, read-out: Half maximal inhibitory concentration (IC50) values, Bel-7402
Excerpt: as §1, §2

MDCK = test: MTT assay, MDCK normal cell line; assay type: cell-based, canine; details: Canis lupus familiaris, MDCK, 72 h incubation, normal cell line, read-out: Half maximal inhibitory concentration (IC50) values, MDCK
Excerpt: as §1, §2

HepG2 = test: MTT assay, HepG2 cells; assay type: cell-based, human; details: Homo sapiens, HepG2, 72 h incubation, read-out: Half maximal inhibitory concentration (IC50) values, HepG2
Excerpt: as §1, §2

LNCaP cells = system: LNCaP cells; parameters: method as in list in b5; details: Figure 1, representative BoA derivatives; ref list in b5; cited from earlier work
G-361 cells = system: G-361 cells; parameters: method as in list in b5; details: Figure 1, representative BoA derivatives; ref list in b5; cited from earlier work
A375 cells = system: A375 cells; parameters: method as in list in b5; details: Figure 1, representative BoA derivatives; ref list in b5; cited from earlier work
Hela cells = system: Hela cells; parameters: method as in list in b5; details: Figure 1, representative BoA derivatives; ref list in b5; cited from earlier work
HCT-116 cells = system: HCT-116 cells; parameters: method as in list in b5; details: Figure 1, representative BoA derivatives; ref list in b5; cited from earlier work
DLD-1 cells = system: DLD-1 cells; parameters: method as in list in b5; details: Figure 1, representative BoA derivatives; ref list in b5; cited from earlier work
SW872 = system: SW872; parameters: method as in list in b5; details: Figure 1, representative BoA derivatives; ref list in b5; cited from earlier work
[1] = system: MCF-7 breast cancer cells; test: MTT cell proliferation with FXR antagonist DY268; assay type: cell-based, human; details: MCF-7, BoA2C (8 μM) + DY268 (10 μM), 24, 48 and 72 h
Method: as §2, with “In separate wells, BoA2C and DY268 were introduced and cultured for 72 h.” left out, “The inhibitory rate was calculated in the following Equation 1, where OD is the optical density: % inhibition=[1−(OD Sample group−OD Blank group)/(OD Control group−OD Blank group)]×100% (1)” left out

[2] = system: normally proliferating fibroblast cells; parameters: method as in Saxena et al., 2006; details: ref Saxena et al., 2006; cited from earlier work
[3] = system: LNCaP prostate cancer cells; parameters: method as in Saxena et al., 2006; details: 100 μM; ref Saxena et al., 2006; cited from earlier work

SMILES | IC50 (Hela) [µM] | IC50 (MCF-7) [µM] | melting point [°C] | IC50 (Bel-7402) [µM] | IC50 (MDCK) [µM] | IC50 (HepG2) [µM] | also measured
C=C(C)[C@@H]1CC[C@]2(C(=O)OCCCCOC(=O)c3cnccn3)CC[C@]3(C)[C@H](CC[C@@H]4[C@@]5(C)CCC(=O)C(C)(C)[C@@H]5CC[C@]43C)[C@@H]12 [BoA4A, (Pyrazin-2-acyloxy)-butyl-3-oxolup-20(29)-en-28-oate] | 13.82 ± 0.12 | 9.13 ± 0.4 | 69 to 71 | 9.39 ± 0.73 | 25.3 ± 4.14 | 12.9 ± 4 | –
C=C(C)[C@@H]1CC[C@]2(C(=O)OCCCCOC(=O)c3nccnc3C)CC[C@]3(C)[C@H](CC[C@@H]4[C@@]5(C)CCC(=O)C(C)(C)[C@@H]5CC[C@]43C)[C@@H]12 [BoA4B, (3-Methylpyrazin-2-acyloxy)-butyl-3-oxolup-20(29)-en-28-oate] | 11.5 ± 0.93 | > 30 | 54 to 55 | 3.92 ± 1.1 | > 30 | 21.8 ± 2.46 | –
C=C(C)[C@@H]1CC[C@]2(C(=O)OCCCCOC(=O)c3nc(C)c(C)nc3C)CC[C@]3(C)[C@H](CC[C@@H]4[C@@]5(C)CCC(=O)C(C)(C)[C@@H]5CC[C@]43C)[C@@H]12 [BoA4E, (3,5,6-Trimethylpyrazin-2-acyloxy)-butyl-3-oxolup-20(29)-en-28-oate] | > 30 | > 30 | 124 to 126 | > 30 | > 30 | > 30 | –
C=C(C)[C@@H]1CC[C@]2(C(=O)OCc3nccnc3C)CC[C@]3(C)[C@H](CC[C@@H]4[C@@]5(C)CCC(=O)C(C)(C)[C@@H]5CC[C@]43C)[C@@H]12 [BoAB, (3-Methylpyrazin-2-yl)-methyl-3-oxolup-20(29)-en-28-oate] | 11.8 ± 0.58 | 10 ± 0.26 | 80 to 82 | 7.73 ± 1.92 | > 30 | 11.1 ± 0.27 | –
C=C(C)[C@@H]1CC[C@]2(C(=O)OCc3cnc(C)cn3)CC[C@]3(C)[C@H](CC[C@@H]4[C@@]5(C)CCC(=O)C(C)(C)[C@@H]5CC[C@]43C)[C@@H]12 [BoAC, (5-Methylpyrazin-2-yl)-methyl-3-oxolup-20(29)-en-28-oate] | 11.9 ± 1.05 | 8.94 ± 1.3 | 125 to 127 | 8.24 ± 2.43 | > 30 | 8.95 ± 4.76 | –
C=C(C)[C@@H]1CC[C@]2(C(=O)OCc3cncc(C)n3)CC[C@]3(C)[C@H](CC[C@@H]4[C@@]5(C)CCC(=O)C(C)(C)[C@@H]5CC[C@]43C)[C@@H]12 [BoAD, (6-Methylpyrazin-2-yl)-methyl-3-oxolup-20(29)-en-28-oate] | 10.7 ± 0.32 | 8.24 ± 0.87 | 119 to 121 | 7.51 ± 1.4 | > 30 | 5.17 ± 1.33 | –
C=C(C)C1CC[C@]2(C(=O)NCCCCC(NC(=O)OC(C)(C)C)C(=O)O)CC[C@]3(C)[C@H](CC[C@@H]4[C@@]5(C)CCC(=O)C(C)(C)[C@@H]5CC[C@]43C)[C@@H]12 (stereo partly shown) [Compound 1] | – | – | – | – | – | – | IC50 (LNCaP cells): 10 µM
C=C(C)C1CCC2(C(=O)OC3OC(COC(C)=O)C(OC(C)=O)C(OC(C)=O)C3OC(C)=O)CCC3(C)C(CCC4C5(C)CCC(O)C(C)(C)C5CCC43C)C12 (stereo not shown) [Compound 2] | – | – | – | – | – | – | IC50 (G-361 cells): 3.4 µM
C=C(C)[C@@H]1CC[C@]2(C(=O)Nc3cncc4ccccc34)CC[C@]3(C)C(CCC4[C@@]5(C)CC[C@H](OC(C)=O)C(C)(C)C5CC[C@]43C)C12 (stereo partly shown) [Compound 3] | – | – | – | – | – | – | IC50 (A375 cells): 1.48 µM
C=C(C)[C@@H]1CC[C@]2(C(=O)OCCN3CCNCC3)CC[C@]3(C)C(CCC4[C@@]5(C)CC[C@H](O)C(C)(C)C5CC[C@]43C)C12 (stereo partly shown) [Compound 4] | – | – | – | – | – | – | IC50 (Hela cells): 2.05 µM
C=C(C)C1CCC2(C(=O)O)CCC3(C)C(CCC4C5(C)CC(=Cc6ccc([N+](=O)[O-])cc6)C(O)C(C)(C)C5CCC43C)C12 (stereo not shown) [Compound 5] | – | – | – | – | – | – | IC50 (HCT-116 cells): 1.36 µM
C=C(C)C1CCC2(COC(C)=O)CCC3(C)C(CCC4C5(C)CCC(OC6OC(CO)C(O)C(O)C6O)C(C)(C)C5CCC43C)C12 (stereo not shown) [Compound 6] | – | – | – | – | – | – | IC50 (DLD-1 cells): 4.45 µM
C=C(C)[C@@H]1CC[C@]2(C(=O)OCC(N)(CO)CO)CC[C@]3(C)[C@H](CC[C@@H]4[C@@]5(C)CC[C@H](OC(C)=O)C(C)(C)[C@@H]5CC[C@]43C)[C@@H]12 [Compound 7] | – | – | – | – | – | – | IC50 (SW872): 1.8 µM
COc1cccc(Cn2cc(C(=O)Nc3ccc(C)c(S(=O)(=O)N4CCOCC4)c3)c(-c3ccc(C)cc3)n2)c1 [DY268] | – | – | – | – | – | – | effect of DY268 on BoA2C antiproliferative activity [1]: reversed BoA2C inhibitory impact on the growth of MCF-7 breast cancer cells
C=C(C)C1CC[C@]2(C(=O)NCCCCC(NC(=O)OC(C)(C)C)C(=O)O)CC[C@]3(C)[C@H](CC[C@@H]4[C@@]5(C)CCC(=O)C(C)(C)[C@@H]5CC[C@]43C)[C@@H]12 (stereo partly shown) [boc-lysinated-betulonic acid] | – | – | – | – | – | – | effect on normally proliferating fibroblast cells [2]: little effect on normally proliferating fibroblast cells; inhibition of LNCaP prostate cancer cells [3]: 95.7%
